The values that follow come from US20160046618A1, “Cyclopropyl Fused Thiazin-2-Amine Compounds as Beta-Secretase Inhibitors and Methods of Use” (AMGEN INC., priority 2014, published 2016).

Test [1] deals with Aβ40 in conditioned medium of cells stably expressing Amyloid Precursor Protein (APP). In words: In vitro BACE-1 cell-based assay (Aβ40 sandwich ELISA). The settings on record: read-out: IC50 IP (μM) BACE1 cell. An outline of the steps: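 APP-expressing cells treated 24 h at 37 °C with compound in 10-point dose response (top 100 μM or 10 μM, 0.1% DMSO final). Secreted Aβ40 in conditioned medium quantified by sandwich ELISA (pAb40 capture, biotinylated 6E10 detection, time-resolved europium fluorescence); IC50 from percent inhibition versus concentration.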

In test [2] the target is human recombinant BACE2 (Homo sapiens (Human), UniProt Q9Y5Z0). Put plainly: In vitro enzymatic BACE2 FRET assay. The format is biochemical. The settings on record: read-out: IC50 IP (μM) BACE2 enzyme. The gist of the method: (§1)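 Protease purified by Ni-NTA chromatography; start with FRET substrate (50 nM); incubate 1 h; quench with Tris to neutral pH; read fluorescence ex 488 / em 590 nm.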
human recombinant BACE2, sequence (Q9Y5Z0 63-518): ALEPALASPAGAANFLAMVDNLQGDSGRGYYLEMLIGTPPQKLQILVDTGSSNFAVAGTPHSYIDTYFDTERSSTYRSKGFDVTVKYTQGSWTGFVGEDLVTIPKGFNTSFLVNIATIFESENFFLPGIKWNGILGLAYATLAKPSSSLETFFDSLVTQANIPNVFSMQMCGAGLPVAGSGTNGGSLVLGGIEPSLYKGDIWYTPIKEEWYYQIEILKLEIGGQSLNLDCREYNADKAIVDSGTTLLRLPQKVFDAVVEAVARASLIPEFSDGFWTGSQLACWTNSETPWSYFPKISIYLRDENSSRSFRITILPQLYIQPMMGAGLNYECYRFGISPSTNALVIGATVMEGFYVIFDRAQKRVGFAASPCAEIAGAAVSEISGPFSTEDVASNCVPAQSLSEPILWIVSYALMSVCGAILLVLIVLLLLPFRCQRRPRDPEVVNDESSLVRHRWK

Test [3] has as its system Aβ 40 in rat CSF. Put plainly: In vivo inhibition of beta-secretase: Aβ40 reduction in rat CSF. Conditions: 10 mpk, after 4 h. The gist of the method:
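Male Sprague Dawley rats (200 g) dosed orally in 2% HPMC, 1% Tween80, pH 2.2, at 3, 10 or 30 mg/kg; CSF and brain taken 4 h later. Brain homogenate centrifuged at 355,000 g; Aβ40 measured by ECL sandwich ELISA (4G8 capture, Abeta40 C-terminal Fab detection), as % reduction versus vehicle controls.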

The subject of test [4] is Aβ 40 in rat brain. In words: In vivo inhibition of beta-secretase: Aβ40 reduction in rat brain. The settings on record: 10 mpk, after 4 h. The gist of the method: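 Rats were dosed by oral gavage at up to 100 mg/kg in 2% HPMC, 1% Tween80, pH 2.2, with vehicle-only controls. Supernatant Aβ40 was measured by ECL sandwich ELISA with biotinylated-4G8 capture and C-terminal Fab40 detection.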

Test [5] deals with Recombinant Cat D (Homo sapiens (Human), UniProt P07339). In words: In vitro enzymatic Cathepsin D (Cat D) FRET assay. It is filed as biochemical. Conditions: read-out: IC50 IP (μM) CatD. An outline of the steps:
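Fluorescence at 500 nm excitation and 580 nm emission reports cleavage of a quenched fluorophore–quencher peptide (20 nM) by CHO-expressed Cat D. Reactions ran one hour in 0.05 M citrate pH 3.5, 5 mM CHAPS, 10% DMSO final before a Tris stop raised pH to neutrality.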

Test [6] deals with human recombinant BACE1 (Homo sapiens (Human), UniProt P56817). Put plainly: In vitro enzymatic BACE1 FRET assay. Conditions: read-out: IC50 IP (μM) BACE1 enzyme. The format is biochemical. An outline of the steps:
as §1

Recombinant Cat D, sequence (P07339 65-412): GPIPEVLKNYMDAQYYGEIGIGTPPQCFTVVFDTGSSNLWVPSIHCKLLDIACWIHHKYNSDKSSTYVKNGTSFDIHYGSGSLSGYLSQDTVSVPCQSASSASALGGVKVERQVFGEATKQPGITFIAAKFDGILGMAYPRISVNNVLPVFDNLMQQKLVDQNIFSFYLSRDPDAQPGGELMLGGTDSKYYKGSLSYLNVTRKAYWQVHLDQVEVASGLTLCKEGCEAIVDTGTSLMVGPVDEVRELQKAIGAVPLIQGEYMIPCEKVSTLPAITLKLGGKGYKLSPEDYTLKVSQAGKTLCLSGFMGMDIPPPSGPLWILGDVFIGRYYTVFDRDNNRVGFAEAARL
human recombinant BACE1, sequence (P56817 46-501): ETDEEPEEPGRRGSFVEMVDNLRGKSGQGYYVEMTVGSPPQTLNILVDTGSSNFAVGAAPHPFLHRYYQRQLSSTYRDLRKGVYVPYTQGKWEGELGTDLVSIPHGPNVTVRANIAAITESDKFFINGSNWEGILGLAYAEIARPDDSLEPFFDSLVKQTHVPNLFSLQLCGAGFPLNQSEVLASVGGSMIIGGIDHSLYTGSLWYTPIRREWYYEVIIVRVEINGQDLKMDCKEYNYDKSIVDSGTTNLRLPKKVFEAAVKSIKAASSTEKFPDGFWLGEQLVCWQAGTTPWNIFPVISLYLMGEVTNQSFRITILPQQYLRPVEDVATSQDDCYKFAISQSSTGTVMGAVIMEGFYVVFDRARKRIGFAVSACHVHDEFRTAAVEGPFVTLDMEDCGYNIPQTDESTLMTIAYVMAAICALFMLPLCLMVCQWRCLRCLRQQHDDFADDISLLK

As to `C#CCOc1cnc(C(=O)Nc2ccc(F)c([C@@]3(C)N=C(N)S[C@@]4(C(=O)NC5CC5)C[C@H]43)c2)cn1` [Example 795, (1S,5S,6S)-3-amino-N-cyclopropyl-5-(2-fluoro-5-(((5-(2-propyn-1-yloxy)-2-pyrazinyl)carbonyl)amino)phenyl)-5-methyl-2-thia-4-azabicyclo[4.1.0]hept-3-en-1-carboxamide], the IC50 in test [1] worked out at 0.000608 µM; in test [2] it was 0.0104 µM; in test [5], 16.6 µM; in test [6], 0.0003 µM. Moreover, in test [3], the “% Aβ 40 reduction in rat CSF at 10 mpk” value came to 76%. In test [4], the “% Aβ 40 reduction in rat brain at 10 mpk” value is recorded as 70%.
With `C[C@]1(c2cc(Nc3ncnc4cc(C#N)cnc34)cc(F)c2F)N=C(N)S[C@@]2(CF)C[C@H]21` [Example 801, 4-((3-((1S,5S,6S)-3-amino-1-(fluoromethyl)-5-methyl-2-thia-4-azabicyclo[4.1.0]hept-3-en-5-yl)-4,5-difluorophenyl)amino)pyrido[3,2-d]pyrimidine-7-carbonitrile], the IC50 in test [1] was 0.0137 µM; in test [2] it was 0.0163 µM; in test [5], 145 µM; in test [6], 0.00613 µM. In test [3], the “% Aβ 40 reduction in rat CSF at 10 mpk” value is given as 74%. Further, the “% Aβ 40 reduction in rat brain at 10 mpk” value in test [4] is reported as 68%.
In the case of `C[C@]1(c2cc(Nc3nccc4nc(OCc5ncco5)cnc34)cc(F)c2F)N=C(N)S[C@@]2(CF)C[C@H]21` [Example 802, N-(3-((1S,5S,6S)-3-amino-1-(fluoromethyl)-5-methyl-2-thia-4-azabicyclo[4.1.0]hept-3-en-5-yl)-4,5-difluorophenyl)-2-(1,3-oxazol-2-ylmethoxy)pyrido[3,4-b]pyrazin-5-amine], the IC50 in test [1] worked out at 0.00497 µM; in test [2], 0.0334 µM; in test [5], 310 µM; in test [6] it was 0.000992 µM. In addition, the “% Aβ 40 reduction in rat CSF at 10 mpk” value in test [3] is 59%. Also, the “% Aβ 40 reduction in rat brain at 10 mpk” value in test [4] worked out at 50%.
As to `Cc1nc(OCc2ncco2)cnc1C(=O)Nc1cc(F)c(F)c([C@@]2(C)N=C(N)S[C@@]3(CF)C[C@H]32)c1` [Example 803, N-(3-((1S,5S,6S)-3-amino-1-(fluoromethyl)-5-methyl-2-thia-4-azabicyclo[4.1.0]hept-3-en-5-yl)-4,5-difluorophenyl)-3-methyl-5-(1,3-oxazol-2-ylmethoxy)-2-pyrazinecarboxamide], the IC50 was determined as 0.00228 µM in test [1], 0.0157 µM in test [2], 1060 µM in test [5] and 0.000643 µM in test [6]. Also, the “% Aβ 40 reduction in rat CSF at 10 mpk” value in test [3] stood at 59%. For the same compound, the “% Aβ 40 reduction in rat brain at 10 mpk” value in test [4] is listed as 45%.
Turning to `C#CCOc1cnc2c(Nc3cc(F)c(F)c([C@@]4(C)N=C(N)S[C@@]5(C(F)F)C[C@@H]45)c3)nccc2n1` [Example 805, N-(3-((1S,5S,6S)-3-amino-1-(difluoromethyl)-5-methyl-2-thia-4-azabicyclo[4.1.0]hept-3-en-5-yl)-4,5-difluorophenyl)-2-(2-propyn-1-yloxy)pyrido[3,4-b]pyrazin-5-amine], the IC50 in test [1] was determined as 0.00497 µM; in test [2] it was 0.0189 µM; in test [5], 27 µM; in test [6] it was 0.000222 µM. Moreover, the “% Aβ 40 reduction in rat CSF at 10 mpk” value in test [3] was 59%. The “% Aβ 40 reduction in rat brain at 10 mpk” value in test [4] turned out to be 53%.
With `C#CCOc1cnc2c(Nc3cc(F)c(F)c([C@@]4(C)N=C(N)S[C@@]5(CF)C[C@H]54)c3)nccc2n1` [Example 806, N-(3-((1S,5S,6S)-3-amino-1-(fluoromethyl)-5-methyl-2-thia-4-azabicyclo[4.1.0]hept-3-en-5-yl)-4,5-difluorophenyl)-2-(2-propyn-1-yloxy)pyrido[3,4-b]pyrazin-5-amine], the half-inhibitory concentration (IC50) in test [1] came to 0.00772 µM; in test [2], 0.0242 µM; in test [5] it was 122 µM; in test [6] it was 0.000489 µM. For the same compound, the “% Aβ 40 reduction in rat CSF at 10 mpk” value in test [3] came out at 70%. For the same compound, the “% Aβ 40 reduction in rat brain at 10 mpk” value in test [4] is recorded as 65%.
Regarding `C[C@]1(c2cc(Nc3ncnc4cc(OCc5ncco5)cnc34)cc(F)c2F)N=C(N)S[C@@]2(CF)C[C@H]21` [Example 808, N-(3-((1S,5S,6S)-3-amino-1-(fluoromethyl)-5-methyl-2-thia-4-azabicyclo[4.1.0]hept-3-en-5-yl)-4,5-difluorophenyl)-7-(1,3-oxazol-2-ylmethoxy)pyrido[3,2-d]pyrimidin-4-amine], the IC50 was 0.00111 µM in test [1], 0.0383 µM in test [2], 127 µM in test [5] and 0.000866 µM in test [6]. Besides, the “% Aβ 40 reduction in rat CSF at 10 mpk” value in test [3] stood at 44%. In addition, in test [4], the “% Aβ 40 reduction in rat brain at 10 mpk” value was determined as 26%.
With `C[C@]1(c2cc(Nc3ncnc4cc(OCc5ncco5)cnc34)cc(F)c2F)N=C(N)S[C@@]2(C(F)F)C[C@@H]12` [Example 812, N-(3-((1S,5S,6S)-3-amino-1-(difluoromethyl)-5-methyl-2-thia-4-azabicyclo[4.1.0]hept-3-en-5-yl)-4,5-difluorophenyl)-7-(1,3-oxazol-2-ylmethoxy)pyrido[3,2-d]pyrimidin-4-amine], the IC50 in test [1] is 0.00167 µM; in test [2], 0.0642 µM; in test [5] it was 118 µM; in test [6] it was 0.000827 µM. Besides, the “% Aβ 40 reduction in rat CSF at 10 mpk” value in test [3] is listed as 52%. Moreover, in test [4], the “% Aβ 40 reduction in rat brain at 10 mpk” value is given as 38%.
For the compound `C#CCOc1cnc2c(Nc3cc(F)c(F)c([C@@]4(C)N=C(N)S[C@@]5(CF)C[C@H]54)c3)ncnc2c1` [Example 813, N-(3-((1S,5S,6S)-3-amino-1-(fluoromethyl)-5-methyl-2-thia-4-azabicyclo[4.1.0]hept-3-en-5-yl)-4,5-difluorophenyl)-7-(2-propyn-1-yloxy)pyrido[3,2-d]pyrimidin-4-amine], the IC50 in test [1] is 0.002 µM; in test [2] it was 0.0258 µM; in test [5] it was 447 µM; in test [6], 0.0009 µM. Besides, in test [3], the “% Aβ 40 reduction in rat CSF at 10 mpk” value is listed as 68%. In test [4], the “% Aβ 40 reduction in rat brain at 10 mpk” value came out at 50%.
`C[C@]1(c2cc(NC(=O)c3cnc(OCC(F)(F)F)cn3)cc(F)c2F)N=C(N)S[C@@]2(CF)C[C@H]21` [Example 814, N-(3-((1S,5S,6S)-3-amino-1-(fluoromethyl)-5-methyl-2-thia-4-azabicyclo[4.1.0]hept-3-en-5-yl)-4,5-difluorophenyl)-5-(2,2,2-trifluoroethoxy)-2-pyrazinecarboxamide]: the concentration for half-maximal inhibition (IC50) is 0.00608 µM in test [1], 0.0601 µM in test [2], 595 µM in test [5] and 0.000829 µM in test [6]. Besides, the “% Aβ 40 reduction in rat CSF at 10 mpk” value in test [3] was 76%. In addition, in test [4], the “% Aβ 40 reduction in rat brain at 10 mpk” value amounted to 68%.
Regarding `C#CCOc1cnc2c(Nc3ccc(F)c([C@@]4(C)N=C(N)S[C@@]5(CF)C[C@H]54)c3)nccc2n1` [Example 823, N-(3-((1S,5S,6S)-3-amino-1-(fluoromethyl)-5-methyl-2-thia-4-azabicyclo[4.1.0]hept-3-en-5-yl)-4-fluorophenyl)-2-(2-propyn-1-yloxy)pyrido[3,4-b]pyrazin-5-amine], the IC50 worked out at 0.00186 µM in test [1], 0.0296 µM in test [2], 351 µM in test [5] and 0.000791 µM in test [6]. Moreover, the “% Aβ 40 reduction in rat CSF at 10 mpk” value in test [3] came to 78%. For the same compound, the “% Aβ 40 reduction in rat brain at 10 mpk” value in test [4] turned out to be 78%.
Consider `C#C[C@H](C)Oc1cnc2c(Nc3ccc(F)c([C@@]4(C)N=C(N)S[C@@]5(CF)C[C@H]54)c3)nccc2n1` [Example 827, N-(3-((1S,5S,6S)-3-amino-1-(fluoromethyl)-5-methyl-2-thia-4-azabicyclo[4.1.0]hept-3-en-5-yl)-4-fluorophenyl)-2-(((1S)-1-methyl-2-propyn-1-yl)oxy)pyrido[3,4-b]pyrazin-5-amine], for which the IC50 in test [1] amounted to 0.0207 µM; in test [2], 0.263 µM; in test [5] it was 810 µM; in test [6], 0.000771 µM. Moreover, the “% Aβ 40 reduction in rat CSF at 10 mpk” value in test [3] was found to be 41%. Moreover, the “% Aβ 40 reduction in rat brain at 10 mpk” value in test [4] is 19%.
On to `Cc1nc(COc2cnc3c(Nc4ccc(F)c([C@@]5(C)N=C(N)S[C@@]6(CF)C[C@H]65)c4)nccc3n2)no1` [Example 828, N-(3-((1S,5S,6S)-3-amino-1-(fluoromethyl)-5-methyl-2-thia-4-azabicyclo[4.1.0]hept-3-en-5-yl)-4-fluorophenyl)-2-((5-methyl-1,2,4-oxadiazol-3-yl)methoxy)pyrido[3,4-b]pyrazin-5-amine], for which the IC50 in test [1] was 0.00446 µM; in test [2], 0.207 µM; in test [5] it was 995 µM; in test [6] it was 0.00496 µM. Moreover, in test [3], the “% Aβ 40 reduction in rat CSF at 10 mpk” value worked out at 24%. Further, the “% Aβ 40 reduction in rat brain at 10 mpk” value in test [4] was 10%.
